A short description of data set [1]: insulin promoter down-regulators in MIN6 cells, imaging, high-content screening, mouse beta cells (AID 1628). In kind it is functional.
The nature of data set [2]: inhibitors of Vif binding to APOBEC3G peptide, primary screen, biochemical, TR-FRET, GST-Vif 1-94, biotin-A3G peptide, dose response retest (AID 1117319).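 Further: TR-FRET signal of purified GST-Vif binding a biotinylated A3G peptide; inhibitors lower the FRET signal by blocking Vif and A3G binding.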 In kind it is functional. (In general: Time-resolved FRET reads energy transfer from a long-lived donor to a nearby acceptor.)
Data set [3] has as its target T1, Alkaline phosphatase, tissue-nonspecific isozyme (Homo sapiens, UniProt P05186).
T1 sequence (P05186 whole entry): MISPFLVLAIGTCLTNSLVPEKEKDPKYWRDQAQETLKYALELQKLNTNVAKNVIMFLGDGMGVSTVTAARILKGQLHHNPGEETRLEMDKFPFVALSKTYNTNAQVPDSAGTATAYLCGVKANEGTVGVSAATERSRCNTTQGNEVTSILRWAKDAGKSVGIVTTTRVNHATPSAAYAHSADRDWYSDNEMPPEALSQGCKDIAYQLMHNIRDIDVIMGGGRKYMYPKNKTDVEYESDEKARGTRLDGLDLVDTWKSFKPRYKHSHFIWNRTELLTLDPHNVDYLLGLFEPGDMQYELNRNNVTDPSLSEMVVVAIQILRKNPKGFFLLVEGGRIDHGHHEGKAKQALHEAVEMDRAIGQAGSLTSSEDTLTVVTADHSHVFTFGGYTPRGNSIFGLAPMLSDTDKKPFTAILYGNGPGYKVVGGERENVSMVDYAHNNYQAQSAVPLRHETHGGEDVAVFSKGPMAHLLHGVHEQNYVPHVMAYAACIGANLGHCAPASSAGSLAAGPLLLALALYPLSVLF
As to the kind of experiment: TNAP enzyme inhibition by screening hits, dose response, selectivity assay for mouse IAP inhibitor project, biochemical, human TNAP, uHTS hits (AID 488906). In kind it is functional.

Data set [4] is described as follows: cytotoxicity in MIN6 insulinoma cells, dose response, cytotoxicity control, cell-based, mouse insulinoma (AID 2122).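 Further: confirmatory high-throughput counterscreen run to flag cytotoxic compounds; mouse MIN-6 beta cells carrying an insulin promoter eGFP reporter.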 In kind it is functional.
Data set [5] is described as follows: growth suppression of beta-catenin-knockout colon cells, dose response, cell-based, HCT116, human colon tumor (AID 1045).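 Further: HCT116 colon tumor cells with beta catenin knocked out; cells exposed to compound for 60 hours.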 In kind it is functional.
Data set [6] has as its target Intestinal-type alkaline phosphatase (Mus musculus, UniProt P24822). As to the kind of experiment: PubChem AID 488785. It is filed as functional.
Data set [7] can be described thus: growth suppression of PTEN-null colon cells, dose response, cell-based, HCT116 PTEN knockout (AID 1047).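 Further: HCT116 colon tumor cells with PTEN knocked out; cells exposed to compound for 60 hours before readout; potency for loss of cell viability measured by luminescence.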 It is filed as functional.
Data set [8] has as its target T2, Histone-lysine N-methyltransferase NSD2 (Homo sapiens, UniProt O96028).
T2 sequence (O96028 whole entry): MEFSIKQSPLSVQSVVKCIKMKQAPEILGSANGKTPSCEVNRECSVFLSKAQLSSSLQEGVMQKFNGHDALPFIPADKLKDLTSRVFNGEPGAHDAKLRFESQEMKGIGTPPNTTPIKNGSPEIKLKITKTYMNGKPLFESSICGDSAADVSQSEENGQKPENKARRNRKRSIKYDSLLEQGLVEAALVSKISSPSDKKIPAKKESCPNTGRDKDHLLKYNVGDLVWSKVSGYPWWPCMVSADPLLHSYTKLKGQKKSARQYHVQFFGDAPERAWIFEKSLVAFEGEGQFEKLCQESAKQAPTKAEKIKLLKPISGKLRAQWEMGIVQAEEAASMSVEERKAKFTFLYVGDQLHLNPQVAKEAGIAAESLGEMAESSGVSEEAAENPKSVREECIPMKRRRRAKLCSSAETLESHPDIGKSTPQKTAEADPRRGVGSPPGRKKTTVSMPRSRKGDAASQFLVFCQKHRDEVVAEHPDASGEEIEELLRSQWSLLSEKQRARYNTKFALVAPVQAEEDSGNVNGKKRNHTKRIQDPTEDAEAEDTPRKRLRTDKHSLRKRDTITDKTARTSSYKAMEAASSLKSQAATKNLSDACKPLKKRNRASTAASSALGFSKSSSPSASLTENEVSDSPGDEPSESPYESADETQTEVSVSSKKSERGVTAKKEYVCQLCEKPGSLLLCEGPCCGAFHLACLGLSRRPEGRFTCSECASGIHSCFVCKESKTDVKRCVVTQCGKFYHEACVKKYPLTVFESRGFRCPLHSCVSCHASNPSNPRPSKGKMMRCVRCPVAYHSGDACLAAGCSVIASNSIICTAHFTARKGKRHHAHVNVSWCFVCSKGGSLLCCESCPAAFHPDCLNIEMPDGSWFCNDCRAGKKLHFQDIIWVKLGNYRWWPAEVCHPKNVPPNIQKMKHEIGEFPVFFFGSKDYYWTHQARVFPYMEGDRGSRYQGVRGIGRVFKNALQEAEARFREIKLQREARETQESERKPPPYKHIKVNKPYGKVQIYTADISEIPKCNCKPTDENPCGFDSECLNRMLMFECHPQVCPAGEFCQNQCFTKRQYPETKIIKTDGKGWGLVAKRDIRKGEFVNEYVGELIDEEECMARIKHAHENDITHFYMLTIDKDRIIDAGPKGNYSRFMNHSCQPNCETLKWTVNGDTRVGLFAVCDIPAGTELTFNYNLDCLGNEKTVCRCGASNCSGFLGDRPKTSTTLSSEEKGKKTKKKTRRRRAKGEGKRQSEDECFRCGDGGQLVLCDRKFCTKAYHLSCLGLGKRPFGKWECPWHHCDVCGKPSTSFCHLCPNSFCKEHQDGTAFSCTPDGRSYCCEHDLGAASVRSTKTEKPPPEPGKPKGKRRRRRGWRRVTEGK
It is filed as biochemical.

Data set [9] deals with Intestinal-type alkaline phosphatase (Homo sapiens, UniProt P09923). The experiment in a line: inhibition of human intestinal alkaline phosphatase – biochemical, dose response (AID 488876). In kind it is functional.
Chain of Intestinal-type alkaline phosphatase (Homo sapiens, UniProt P09923) (P09923 whole entry): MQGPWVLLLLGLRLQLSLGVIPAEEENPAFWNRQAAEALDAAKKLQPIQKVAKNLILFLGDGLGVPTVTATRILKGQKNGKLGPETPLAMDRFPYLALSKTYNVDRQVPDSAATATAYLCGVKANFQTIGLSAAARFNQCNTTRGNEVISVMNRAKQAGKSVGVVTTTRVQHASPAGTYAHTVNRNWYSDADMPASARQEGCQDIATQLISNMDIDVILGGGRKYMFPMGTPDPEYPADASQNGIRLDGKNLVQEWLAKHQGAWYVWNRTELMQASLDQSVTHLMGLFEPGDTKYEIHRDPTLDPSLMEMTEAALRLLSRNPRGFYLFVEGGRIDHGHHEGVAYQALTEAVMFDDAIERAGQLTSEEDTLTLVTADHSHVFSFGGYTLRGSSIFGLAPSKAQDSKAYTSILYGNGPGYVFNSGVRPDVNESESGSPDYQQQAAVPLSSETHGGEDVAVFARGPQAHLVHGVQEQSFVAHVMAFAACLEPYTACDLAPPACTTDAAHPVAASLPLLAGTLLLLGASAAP
The nature of data set [10]: THP-1 cell cytotoxicity, dose response, cytotoxicity control for Vif-APOBEC3G degradation inhibitor project, THP-1 cells (AID 1117359). In kind it is functional. As to conditions: Human immunodeficiency virus 1, THP-1.
Data set [11] can be described thus: Vero cell cytotoxicity, dose response, cytotoxicity control for Vif-APOBEC3G degradation inhibitor project, Vero cells (AID 1117358). As to conditions: Human immunodeficiency virus 1, Vero. It is filed as functional.
Data set [12] is described as follows: inhibitors of cytokine-induced nitrite release, dose response, cell-based, Griess absorbance, INS-1E, dry powder, set 3 (AID 488870). It is filed as functional. The following applies: Rattus norvegicus. On the technique in general: The Griess reaction detects nitrite, a stable product of nitric oxide.
In data set [13] the target is 1-phosphatidylinositol 4,5-bisphosphate phosphodiesterase beta-3 (Homo sapiens, UniProt Q01970). As to the kind of experiment: Fluorescence-based biochemical high throughput dose response assay to identify inhibitors of phospholipase C isozymes (PLC-B3).
Chain of 1-phosphatidylinositol 4,5-bisphosphate phosphodiesterase beta-3 (Q01970 whole entry): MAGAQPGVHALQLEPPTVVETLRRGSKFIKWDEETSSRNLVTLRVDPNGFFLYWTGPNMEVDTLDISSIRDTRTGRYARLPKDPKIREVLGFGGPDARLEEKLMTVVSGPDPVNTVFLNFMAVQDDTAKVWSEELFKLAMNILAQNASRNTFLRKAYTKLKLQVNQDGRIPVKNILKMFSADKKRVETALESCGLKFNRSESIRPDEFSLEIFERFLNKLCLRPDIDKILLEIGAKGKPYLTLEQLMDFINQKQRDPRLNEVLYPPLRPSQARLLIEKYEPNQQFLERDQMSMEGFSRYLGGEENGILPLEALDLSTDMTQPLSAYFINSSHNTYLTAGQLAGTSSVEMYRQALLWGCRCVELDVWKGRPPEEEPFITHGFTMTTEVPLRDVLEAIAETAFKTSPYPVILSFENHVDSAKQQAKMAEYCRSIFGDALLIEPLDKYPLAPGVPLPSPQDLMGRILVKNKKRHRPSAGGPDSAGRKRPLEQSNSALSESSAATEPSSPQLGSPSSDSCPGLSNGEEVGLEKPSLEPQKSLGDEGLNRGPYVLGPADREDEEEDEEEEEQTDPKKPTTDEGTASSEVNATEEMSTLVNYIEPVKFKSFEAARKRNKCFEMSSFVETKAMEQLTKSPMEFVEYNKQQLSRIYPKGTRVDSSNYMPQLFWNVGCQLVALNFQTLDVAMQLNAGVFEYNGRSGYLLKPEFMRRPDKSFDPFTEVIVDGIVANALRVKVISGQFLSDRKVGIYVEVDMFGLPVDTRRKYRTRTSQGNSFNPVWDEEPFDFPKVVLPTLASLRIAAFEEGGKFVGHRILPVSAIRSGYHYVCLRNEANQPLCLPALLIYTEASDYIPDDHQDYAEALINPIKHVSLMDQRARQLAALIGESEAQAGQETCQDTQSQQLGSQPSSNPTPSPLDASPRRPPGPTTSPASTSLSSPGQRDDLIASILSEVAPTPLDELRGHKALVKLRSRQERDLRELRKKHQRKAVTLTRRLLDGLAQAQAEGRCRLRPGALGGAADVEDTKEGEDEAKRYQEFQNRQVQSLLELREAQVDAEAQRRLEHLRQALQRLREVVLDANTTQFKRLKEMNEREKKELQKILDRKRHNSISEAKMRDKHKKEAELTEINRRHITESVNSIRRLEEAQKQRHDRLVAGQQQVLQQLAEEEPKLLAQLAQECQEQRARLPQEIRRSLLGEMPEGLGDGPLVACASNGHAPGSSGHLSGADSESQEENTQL
In data set [14] the target is T3, Small ubiquitin-related modifier 1 (Homo sapiens, UniProt P63165). As to the kind of experiment: inhibitors of SUMO1 partner interactions, dose response, biochemical, FRET (AID 624383). In kind it is functional. As to conditions: read-out: IC50_Mean.
T3 sequence (P63165 whole entry): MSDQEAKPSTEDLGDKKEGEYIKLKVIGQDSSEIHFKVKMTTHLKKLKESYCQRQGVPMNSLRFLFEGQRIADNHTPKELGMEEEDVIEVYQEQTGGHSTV
Data set [15] addresses 1-phosphatidylinositol 4,5-bisphosphate phosphodiesterase gamma-1 (Homo sapiens, UniProt P19174). As to the kind of experiment: Counterscreen for inhibitors of phospholipase C isozymes (PLC-B3): Fluorescence-based biochemical high throughput dose response assay to identify inhibitors of phospholipase C isozymes (PLC-gamma1).
In data set [16] the target is T4, Apoptotic protease-activating factor 1 (Homo sapiens, UniProt O14727).
T4 sequence (O14727 whole entry): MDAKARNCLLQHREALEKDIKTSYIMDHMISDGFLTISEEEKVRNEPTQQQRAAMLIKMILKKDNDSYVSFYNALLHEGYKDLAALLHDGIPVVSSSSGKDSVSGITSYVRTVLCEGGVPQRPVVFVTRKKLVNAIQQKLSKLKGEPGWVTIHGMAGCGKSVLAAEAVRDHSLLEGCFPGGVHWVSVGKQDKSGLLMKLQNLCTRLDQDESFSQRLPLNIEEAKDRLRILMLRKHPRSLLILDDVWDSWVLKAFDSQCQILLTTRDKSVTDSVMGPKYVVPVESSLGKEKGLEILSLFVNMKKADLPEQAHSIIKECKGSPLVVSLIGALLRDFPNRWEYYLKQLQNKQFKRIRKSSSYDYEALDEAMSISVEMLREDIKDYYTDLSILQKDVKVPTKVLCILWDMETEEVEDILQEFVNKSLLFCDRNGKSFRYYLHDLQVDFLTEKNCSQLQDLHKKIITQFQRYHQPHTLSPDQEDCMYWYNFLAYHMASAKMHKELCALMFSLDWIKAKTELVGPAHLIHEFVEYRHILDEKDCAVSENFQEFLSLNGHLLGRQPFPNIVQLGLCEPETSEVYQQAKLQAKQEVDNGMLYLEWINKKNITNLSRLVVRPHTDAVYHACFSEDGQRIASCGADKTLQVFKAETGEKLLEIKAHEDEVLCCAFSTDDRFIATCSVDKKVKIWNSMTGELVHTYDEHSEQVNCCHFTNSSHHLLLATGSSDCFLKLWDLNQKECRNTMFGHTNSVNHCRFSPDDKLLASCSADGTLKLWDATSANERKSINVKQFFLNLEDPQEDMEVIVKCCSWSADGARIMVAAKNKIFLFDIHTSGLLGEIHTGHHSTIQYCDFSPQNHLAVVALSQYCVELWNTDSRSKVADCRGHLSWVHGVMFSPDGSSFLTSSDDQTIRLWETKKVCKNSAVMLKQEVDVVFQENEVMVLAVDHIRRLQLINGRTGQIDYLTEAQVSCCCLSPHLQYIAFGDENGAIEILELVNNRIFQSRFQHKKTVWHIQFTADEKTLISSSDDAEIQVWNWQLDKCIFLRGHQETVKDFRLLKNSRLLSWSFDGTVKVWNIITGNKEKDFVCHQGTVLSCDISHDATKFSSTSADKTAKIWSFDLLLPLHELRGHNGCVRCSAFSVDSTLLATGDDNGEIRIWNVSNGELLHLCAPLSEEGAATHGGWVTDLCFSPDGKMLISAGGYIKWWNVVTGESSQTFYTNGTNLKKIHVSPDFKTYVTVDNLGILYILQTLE
The experiment in a line: activation of Apaf-1 mediated apoptosis – fluorescent, uHTS hits, dose response (AID 588554). It is filed as functional.

Data set [17] addresses T3, Small ubiquitin-related modifier 1. As to the kind of experiment: inhibitors of SUMO1 peptide binding, dose response, biochemical, fluorescence polarization, uHTS hits (AID 624382). It is filed as functional. The following applies: read-out: IC50_Mean. (In fluorescence polarisation assays a small probe gives low polarisation when free and higher when bound to something large.)

The target in data set [18] is NAD-dependent protein deacylase sirtuin-5, mitochondrial (Homo sapiens, UniProt Q9NXA8). As to the kind of experiment: SIRT5 desuccinylase inhibitors, dose response, biochemical, fluorescence imaging, cherry-pick, set 5 (AID 720591).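 Further: desuccinylation of succinyl peptide AMC substrate read as fluorescence after trypsin release; potency of inhibitors that lower fluorescence and may act on trypsin instead.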
Chain of NAD-dependent protein deacylase sirtuin-5, mitochondrial (Q9NXA8 whole entry): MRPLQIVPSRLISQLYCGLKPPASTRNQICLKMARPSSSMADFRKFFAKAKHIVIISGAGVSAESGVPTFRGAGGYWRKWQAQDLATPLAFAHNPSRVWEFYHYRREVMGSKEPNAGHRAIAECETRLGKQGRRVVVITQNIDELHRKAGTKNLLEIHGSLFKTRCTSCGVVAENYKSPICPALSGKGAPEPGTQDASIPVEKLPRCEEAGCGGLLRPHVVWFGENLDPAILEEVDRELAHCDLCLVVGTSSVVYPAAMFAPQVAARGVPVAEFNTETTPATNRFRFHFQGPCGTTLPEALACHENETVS
Data set [19] addresses T5, Cytochrome P450 1A2 (Homo sapiens, UniProt P05177).
T5 sequence (P05177 whole entry): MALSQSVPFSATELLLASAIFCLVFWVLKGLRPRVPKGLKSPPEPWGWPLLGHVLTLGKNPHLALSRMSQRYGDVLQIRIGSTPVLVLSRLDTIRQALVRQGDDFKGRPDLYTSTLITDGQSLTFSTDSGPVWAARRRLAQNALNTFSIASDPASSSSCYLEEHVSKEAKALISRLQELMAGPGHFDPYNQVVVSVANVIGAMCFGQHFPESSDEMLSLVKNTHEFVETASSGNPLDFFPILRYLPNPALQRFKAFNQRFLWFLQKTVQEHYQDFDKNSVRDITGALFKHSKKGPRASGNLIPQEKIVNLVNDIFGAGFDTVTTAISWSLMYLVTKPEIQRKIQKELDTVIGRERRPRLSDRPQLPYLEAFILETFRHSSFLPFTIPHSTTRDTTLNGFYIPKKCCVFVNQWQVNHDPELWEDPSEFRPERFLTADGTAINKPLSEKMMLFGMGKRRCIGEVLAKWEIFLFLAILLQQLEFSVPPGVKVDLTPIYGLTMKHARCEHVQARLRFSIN

In data set [20] the target is Cytochrome P450 2C19 (Homo sapiens, UniProt P33261). As to the kind of experiment: Cytochrome panel assay with activity outcomes. Panel member name: p450-cyp2c19 Compounds with AC50 equal or less than 10 uM are considered active. In kind it is functional.
Chain of Cytochrome P450 2C19 (P33261 whole entry): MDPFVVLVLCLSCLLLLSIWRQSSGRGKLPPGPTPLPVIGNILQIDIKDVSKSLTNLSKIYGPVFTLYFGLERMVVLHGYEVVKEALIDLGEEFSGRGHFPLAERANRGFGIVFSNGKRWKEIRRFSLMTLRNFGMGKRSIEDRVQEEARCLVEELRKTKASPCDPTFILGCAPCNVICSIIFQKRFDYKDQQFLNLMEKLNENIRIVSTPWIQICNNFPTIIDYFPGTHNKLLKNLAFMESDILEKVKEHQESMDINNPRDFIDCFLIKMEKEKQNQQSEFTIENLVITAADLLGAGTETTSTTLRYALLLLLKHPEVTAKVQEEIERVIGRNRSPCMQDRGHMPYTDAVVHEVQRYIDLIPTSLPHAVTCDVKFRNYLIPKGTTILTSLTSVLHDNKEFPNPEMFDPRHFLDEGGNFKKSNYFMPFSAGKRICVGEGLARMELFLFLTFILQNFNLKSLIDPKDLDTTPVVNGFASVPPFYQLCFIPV
Data set [21] has as its target Cytochrome P450 2D6 (Homo sapiens, UniProt P10635).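 Further: CYP2D6 member of a cytochrome P450 panel assay.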

As usually defined, the EC50 is the concentration that produces a half-maximal response. As usually defined, the AC50 is the concentration at which the activity in the assay is half-maximal. Usually CC50 stands for the concentration at which the toxic effect on the cells reaches its halfway point.

“Also recorded” adds a separate entry of the source. Active and inactive are the calls of the source. Where only a bound is given, the exact number is not on record here.

Chain of Cytochrome P450 2D6 (P10635 whole entry): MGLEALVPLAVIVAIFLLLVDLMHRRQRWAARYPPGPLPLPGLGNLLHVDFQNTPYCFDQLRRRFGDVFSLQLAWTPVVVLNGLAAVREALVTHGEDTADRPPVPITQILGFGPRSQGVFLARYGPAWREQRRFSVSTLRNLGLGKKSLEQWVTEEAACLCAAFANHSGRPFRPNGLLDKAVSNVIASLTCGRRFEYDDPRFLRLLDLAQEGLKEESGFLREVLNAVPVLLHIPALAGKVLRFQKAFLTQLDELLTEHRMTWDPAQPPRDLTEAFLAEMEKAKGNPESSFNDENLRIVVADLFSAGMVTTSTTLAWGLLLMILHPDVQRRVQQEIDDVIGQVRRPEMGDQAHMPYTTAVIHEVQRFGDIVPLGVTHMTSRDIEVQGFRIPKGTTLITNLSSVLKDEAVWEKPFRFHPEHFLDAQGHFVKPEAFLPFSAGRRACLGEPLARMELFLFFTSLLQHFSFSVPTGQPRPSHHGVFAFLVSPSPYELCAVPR
Chain of Intestinal-type alkaline phosphatase (Mus musculus, UniProt P24822) (P24822 whole entry): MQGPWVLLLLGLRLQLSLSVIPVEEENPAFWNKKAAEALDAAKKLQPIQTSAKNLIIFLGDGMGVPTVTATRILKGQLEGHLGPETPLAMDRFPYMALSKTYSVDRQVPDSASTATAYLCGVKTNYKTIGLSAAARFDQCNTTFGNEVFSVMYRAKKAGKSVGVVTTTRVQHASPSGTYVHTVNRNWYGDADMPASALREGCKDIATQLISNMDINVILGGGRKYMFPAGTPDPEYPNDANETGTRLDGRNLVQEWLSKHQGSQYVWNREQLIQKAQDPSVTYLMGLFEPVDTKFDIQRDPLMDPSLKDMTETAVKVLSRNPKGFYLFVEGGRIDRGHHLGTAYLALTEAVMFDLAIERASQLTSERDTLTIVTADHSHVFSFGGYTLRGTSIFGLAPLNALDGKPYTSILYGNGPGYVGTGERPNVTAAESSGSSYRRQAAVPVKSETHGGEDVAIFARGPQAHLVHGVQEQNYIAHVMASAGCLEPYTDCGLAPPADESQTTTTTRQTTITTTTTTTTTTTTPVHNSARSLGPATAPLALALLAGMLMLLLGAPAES
Chain of 1-phosphatidylinositol 4,5-bisphosphate phosphodiesterase gamma-1 (P19174 whole entry): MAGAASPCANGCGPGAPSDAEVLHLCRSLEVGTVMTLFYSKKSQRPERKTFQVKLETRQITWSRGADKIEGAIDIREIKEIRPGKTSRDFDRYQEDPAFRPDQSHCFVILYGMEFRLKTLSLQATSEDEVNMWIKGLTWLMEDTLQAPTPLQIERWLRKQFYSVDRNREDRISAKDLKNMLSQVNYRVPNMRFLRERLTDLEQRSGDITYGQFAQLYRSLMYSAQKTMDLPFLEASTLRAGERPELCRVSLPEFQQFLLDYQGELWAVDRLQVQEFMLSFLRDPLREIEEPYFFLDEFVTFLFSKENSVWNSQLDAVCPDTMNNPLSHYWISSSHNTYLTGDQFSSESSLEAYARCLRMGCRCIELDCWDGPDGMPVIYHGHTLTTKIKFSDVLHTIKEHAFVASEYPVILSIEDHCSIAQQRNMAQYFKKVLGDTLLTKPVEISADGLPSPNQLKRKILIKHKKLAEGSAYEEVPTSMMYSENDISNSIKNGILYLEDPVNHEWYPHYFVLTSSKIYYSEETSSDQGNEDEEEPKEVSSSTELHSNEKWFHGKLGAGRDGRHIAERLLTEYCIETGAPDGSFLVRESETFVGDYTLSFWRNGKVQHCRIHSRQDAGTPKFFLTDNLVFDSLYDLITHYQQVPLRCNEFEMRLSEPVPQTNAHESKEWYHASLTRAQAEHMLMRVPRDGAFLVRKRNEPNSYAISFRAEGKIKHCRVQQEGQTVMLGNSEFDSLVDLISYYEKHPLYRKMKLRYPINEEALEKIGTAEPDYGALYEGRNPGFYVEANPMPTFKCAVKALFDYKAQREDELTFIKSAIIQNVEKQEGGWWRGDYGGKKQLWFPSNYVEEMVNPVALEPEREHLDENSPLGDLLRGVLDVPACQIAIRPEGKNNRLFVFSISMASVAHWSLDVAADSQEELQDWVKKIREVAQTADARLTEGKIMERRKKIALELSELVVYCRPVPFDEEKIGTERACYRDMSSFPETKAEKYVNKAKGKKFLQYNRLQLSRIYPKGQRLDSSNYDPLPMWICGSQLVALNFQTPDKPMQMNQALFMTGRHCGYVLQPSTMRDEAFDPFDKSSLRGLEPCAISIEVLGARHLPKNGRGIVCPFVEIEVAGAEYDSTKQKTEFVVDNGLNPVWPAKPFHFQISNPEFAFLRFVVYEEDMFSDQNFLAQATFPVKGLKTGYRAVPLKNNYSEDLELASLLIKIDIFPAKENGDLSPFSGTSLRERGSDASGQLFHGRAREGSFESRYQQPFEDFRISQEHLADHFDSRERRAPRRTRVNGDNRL

`Cc1cccnc1Nc1nc(-c2ccc(O)c(O)c2)cs1`: the IC50 is 8.95 µM (active) in data set [1]; > 51.1 µM (active) in data set [2]; > 100 µM (inactive) in data set [3]; 9.5 µM (active) in data set [4]; 4.03 µM (active) in [6]; > 100 µM (inactive) in [9]. The EC50 is 13.6 µM (active) in data set [5] and 13.3 µM (active) in [7]. For the same molecule, the AC50 in [8] was > 20 µM (inactive). Moreover, the figures for the CC50 in data set [10] and in [11] were 21.2 µM (active) and > 40 µM (active), respectively.

As to `C[C@@H]1CN([C@@H](C)CO)C(=O)c2cccc(NC(=O)Nc3cccc4ccccc34)c2O[C@H]1CN(C)C(=O)Nc1ccc(C(F)(F)F)cc1`, the AC50 in data set [12] is 40.7 µM (active).

Take `C=CC1=C(C(=O)O)N2C(=O)[C@@H](NC(=O)/C(=N\OCC(=O)O)c3csc(N)n3)[C@H]2SC1` [CEFIXIME]: the IC50 is > 122 µM (inactive) in data set [13], 1.48 µM (active) in [14], 1.21 µM (active) in data set [15] and > 66.6 µM (inactive) in data set [17]. Further, the EC50 in data set [16] is 9.08 µM (active). Also, in [18], the AC50 is 17.9 µM (active).

Turning to `Nc1ccc(S(=O)(=O)Nc2ccnn2-c2ccccc2)cc1` [SULFAPHENAZOLE], the AC50 entry was “inactive” in data set [19], “inactive; also recorded: inconclusive” in data set [20] and “inactive” in data set [21].

Values taken from ChEMBL document CHEMBL1201862, “PubChem BioAssay data set” (2004).
